Data set [1] concerns HUVEC. Nature of the data set: Cytotoxicity against HUVEC after 24 hrs by MTT assay. It is filed as cell-based. The conditions noted are these: human. (In general: Tetrazolium assays rely on reduction of a dye to a coloured formazan, in cell work by metabolically active cells.)
The subject of data set [2] is HUVEC. The data set is described as follows: Radioprotective activity against 5 Gy gamma radiation-mediated cell damage in HUVEC assessed as cell survival at 0.1 uM preincubated for 2 hrs followed by 5 Gy gamma irradiation and measured after 48 hrs by MTT assay relative to control. It is filed as functional. Particulars: Homo sapiens, light or radiation study, read-out: Survival.

For data set [3], the system named is HUVEC. Nature of the data set: Radioprotective activity against 5 Gy gamma radiation-mediated cell damage in HUVEC assessed as increase in cell survival at 0.1 to 10 uM after 48 hrs by MTT assay. The conditions noted are these: Homo sapiens. It is filed as functional, cell-based.
For data set [4], the system named is HUVEC. The data set is described as follows: Radioprotective activity against 5 Gy gamma radiation-mediated cell damage in HUVEC assessed as early apoptotic cells at 0.1 uM preincubated for 2 hrs followed by 5 Gy gamma irradiation and measured after 24 hrs by annexin-V-FITC/propidium iodide staining-based flow cytometric method (reference value: 21.2%). It is filed as functional, Homo sapiens. Background: Flow cytometry measures light scatter and fluorescence of single cells or particles in a stream.

For data set [5], the system named is HUVEC. The data set is described as follows: Radioprotective activity against 5 Gy gamma radiation-mediated cell damage in HUVEC assessed as late apoptotic cells at 0.1 uM preincubated for 2 hrs followed by 5 Gy gamma irradiation and measured after 24 hrs by annexin-V-FITC/propidium iodide staining-based flow cytometric method (reference value: 9.5%). It is filed as functional, Homo sapiens.

Data set [6] concerns HUVEC. Nature of the data set: Radioprotective activity against 5 Gy gamma radiation-mediated cell damage in HUVEC assessed as necrotic cells at 0.1 uM preincubated for 2 hrs followed by 5 Gy gamma irradiation and measured after 24 hrs by annexin-V-FITC/propidium iodide staining-based flow cytometric method (reference value: 3.5%). It is filed as functional, Homo sapiens.
Data set [7] concerns HUVEC. Nature of the data set: Radioprotective activity against 5 Gy gamma radiation-mediated cell damage in HUVEC assessed as viable cells at 0.1 uM preincubated for 2 hrs followed by 5 Gy gamma irradiation and measured after 24 hrs by annexin-V-FITC/propidium iodide staining-based flow cytometric method (reference value: 65.8%). It is filed as functional. Particulars: Homo sapiens, light or radiation study, read-out: Activity.

Data set [8] relates to HUVEC. Nature of the data set: Radioprotective activity against 5 Gy gamma radiation-mediated cell damage in HUVEC assessed as early apoptotic cells at 1 uM preincubated for 2 hrs followed by 5 Gy gamma irradiation and measured after 24 hrs by annexin-V-FITC/propidium iodide staining-based flow cytometric method (reference value: 21.2%). It is filed as functional, Homo sapiens.

Data set [9] deals with HUVEC. The data set is described as follows: Radioprotective activity against 5 Gy gamma radiation-mediated cell damage in HUVEC assessed as late apoptotic cells at 1 uM preincubated for 2 hrs followed by 5 Gy gamma irradiation and measured after 24 hrs by annexin-V-FITC/propidium iodide staining-based flow cytometric method (reference value: 9.5%). It is filed as functional, Homo sapiens.

For data set [10], the system named is HUVEC. The data set is described as follows: Radioprotective activity against 5 Gy gamma radiation-mediated cell damage in HUVEC assessed as necrotic cells at 1 uM preincubated for 2 hrs followed by 5 Gy gamma irradiation and measured after 24 hrs by annexin-V-FITC/propidium iodide staining-based flow cytometric method (reference value: 3.5%). The format is functional, Homo sapiens.

Data set [11] concerns HUVEC. Nature of the data set: Radioprotective activity against 5 Gy gamma radiation-mediated cell damage in HUVEC assessed as viable cells at 1 uM preincubated for 2 hrs followed by 5 Gy gamma irradiation and measured after 24 hrs by annexin-V-FITC/propidium iodide staining-based flow cytometric method (reference value: 65.8%). The format is functional. Particulars: Homo sapiens, light or radiation study, read-out: Activity.

For data set [12], the system named is HUVEC. The data set is described as follows: Radioprotective activity against 5 Gy gamma radiation-mediated cell damage in HUVEC assessed as early apoptotic cells at 10 uM preincubated for 2 hrs followed by 5 Gy gamma irradiation and measured after 24 hrs by annexin-V-FITC/propidium iodide staining-based flow cytometric method (reference value: 21.2%). It is filed as functional, Homo sapiens.

Data set [13] has as its system HUVEC. Nature of the data set: Radioprotective activity against 5 Gy gamma radiation-mediated cell damage in HUVEC assessed as late apoptotic cells at 10 uM preincubated for 2 hrs followed by 5 Gy gamma irradiation and measured after 24 hrs by annexin-V-FITC/propidium iodide staining-based flow cytometric method (reference value: 9.5%). It is filed as functional, Homo sapiens.

Data set [14] deals with HUVEC. The data set is described as follows: Radioprotective activity against 5 Gy gamma radiation-mediated cell damage in HUVEC assessed as necrotic cells at 10 uM preincubated for 2 hrs followed by 5 Gy gamma irradiation and measured after 24 hrs by annexin-V-FITC/propidium iodide staining-based flow cytometric method (reference value: 3.5%). It is filed as functional, Homo sapiens.

Data set [15] concerns HUVEC. Nature of the data set: Radioprotective activity against 5 Gy gamma radiation-mediated cell damage in HUVEC assessed as viable cells at 10 uM preincubated for 2 hrs followed by 5 Gy gamma irradiation and measured after 24 hrs by annexin-V-FITC/propidium iodide staining-based flow cytometric method (reference value: 65.8%). It is filed as functional. The conditions noted are these: Homo sapiens, light or radiation study, read-out: Activity.

Data set [16] concerns HUVEC. The data set is described as follows: Radioprotective activity against 5 Gy gamma radiation-mediated cell damage in HUVEC assessed as reduction of total p53 levels at 0.1 to 10 uM by Western blot method. Particulars: Homo sapiens. It is filed as functional, cell-based. (In general: In western blotting, separated proteins are transferred to a membrane and probed.)
Data set [17] has as its system HUVEC. Nature of the data set: Radioprotective activity against 5 Gy gamma radiation-mediated cell damage in HUVEC assessed as reduction of phopsho-p53 levels at 0.1 to 10 uM by Western blot method. The conditions noted are these: Homo sapiens. The format is functional, cell-based.
For data set [18], the system named is HUVEC. The data set is described as follows: Radioprotective activity against 5 Gy gamma radiation-mediated cell damage in HUVEC assessed as decrease in caspase-3 activation at 0.1 to 10 uM by Western blot method. The format is functional, cell-based. Particulars: Homo sapiens.
The test system of data set [19] is HUVEC. The data set is described as follows: Radioprotective activity against 5 Gy gamma radiation-mediated cell damage in HUVEC assessed as increase in Bcl-2 levels at 0.1 to 10 uM by Western blot method. It is filed as functional, cell-based. Particulars: Homo sapiens.
In data set [20] the test system is HUVEC. The data set is described as follows: Radioprotective activity against 5 Gy gamma radiation-mediated cell damage in HUVEC assessed as decrease in Bax levels at 0.1 to 10 uM by Western blot method. It is filed as functional, cell-based. The conditions noted are these: Homo sapiens.

Calls of active or inactive are those of the source. The calls are words filed in the database; no cut-off is given here.

Drawing on ChEMBL document CHEMBL4261498, “Synthesis, characterization, and radioprotective activity of α,β-unsaturated aryl sulfone analogs and their Tempol conjugates” (Medchemcomm, 2017), this text covers Activity and viability for one compound.

Turning to `O=C(O)c1ccc(/C=C/S(=O)(=O)Cc2ccc(OC(F)(F)F)cc2)cc1`, the Activity result in data set [1] is given as “Toxic”; in [4], 7.8%; in data set [5] it was 4.7%; in [6], 4.3%; in data set [8], 8.5%; in [9] it was 6.2%. In addition, the Activity in data set [10] came to 3.4%; in [12], 7%; in data set [13] it was 8.1%; in data set [14] it was 3%. Moreover, the results for the viability at 0.1 µM in data set [2] and in data set [7] were 50% and 83.3%, respectively. For the same compound, the result in [3], in [16], in data set [17], in data set [18], in data set [19] and in data set [20] was Active. For the same compound, the viability at 1 µM in data set [11] was determined as 81.9%. For the same compound, the viability at 10 µM in [15] was determined as 81.9%.
